Laboratory results taken from PMC2074382 (British Journal of Cancer, 1996).
Values joined by “and” are separate entries in the source; they are usually repeats but may differ in a detail not shown here. Equal values may be shown once. Where a name gives a salt, the structure may show the parent alone.

Assay: Pharmacokinetics (lactone form, HPLC, non-compartmental) in plasma and urine, days 1 and 4 of first course
Conditions: for fe, fraction of the drug excreted unchanged / Clr, renal clearance: Table VI
Description: British Journal of Cancer (1996) 73, 744-750 O (C? 1996 Stockton Press All rights reserved 0007-0920/96 $12.00 Phase I and pharmacological study of the new topoisomerase I inhibitor G1147211, using a daily x 5 intravenous administration CJH Gerrits', GJ Creemers', JHM Schellens', P Wissel2, AS Th Planting', R Kunka2, K Selinger2, M de Boer-Dennert', Y Marijnen3, M Harteveld' and J Verweijl 'Department of Medical Oncology, Rotterdam Cancer Institute, Rotterdam, The Netherlands; 2Glaxo Wellcome Inc, Department of Clinical Pharmacology, NC, USA; 3Glaxo Wellcome Inc, Department of Clinical Research, Zeist, The Netherlands. Summary Topoisomerase I inhibitors are interesting anti-cancer agents with a novel mechanism of action. […] In subsequent patient cohorts the dose was escalated from 0.3 to 1.5 mg m-2 day-'. Pharmacokinetics analysis was performed on days 1 and 4 of the first course using a validated high- performance liquid chromatographic assay and non-compartmental methods. […] Its further development was stopped because of unpredictable and severe myelosuppression, gastrointestinal toxicity and haemorrhagic cystitis. In the late 1980s two discoveries brought about a renewal of interest in CPT; firstly, topoisomerase I was identified as the single cellular target of CPT (Hsiang et al., 1985; Hsiang and Liu, 1988) and, secondly, an overexpression of topoisomerase I was found in various tumour cell lines but not in normal tissues (Giovanella et al., 1989; Hirabayaski et al., 1992; Potmesil et al., 1988). Topoisomerase I is a nuclear enzyme that resolves topological problems of the torsionally strained (supercoiled) DNA (Slichenmyer et al., 1993). This is achieved by forming a covalent adduct between topoisome- rase I and the DNA, termed the cleavable complex. This catalytic intermediate creates single-strand DNA breaks, allowing the DNA molecule to rotate around the intact DNA strand at the cleavage site, leading to a relaxation of the DNA molecule and in this way replication, transcription and other DNA functions can proceed. These enzyme- bridged breaks are then resealed by topoisomerase I. CPT stabilises the cleavable complexes, thereby preventing resealing of single-strand DNA breaks in the presence of the drug (Covey et al., 1989; D'Arpa and Liu, 1989; Eng et al., 1988). Cytotoxicity is specific to the S-phase of the cell cycle because the double-strand breaks that occur during this phase are more difficult to repair in the presence of the drug (Horwitz and Horwitz, 1973). […] Other eligibility criteria included: (1) age>, 18 years; (2) an Eastern Cooperative Oncology Group (ECOG) performance status <2; (3) a predicted life expectancy of at least 3 months; (4) no previous anti-cancer therapy for at least 3 weeks (6 weeks for previous nitro- soureas or mitomycin C); (5) adequate haemato- poietic (WBC) 3 x 109 -', ANC > 1.5 x 109 1-' and platelets 100 x 10 1- 1), hepatic (bilirubin within normal limits, AST, ALT and/or alkaline phosphatase < 2.0 x normal), and renal (serum creatinine < 130 imol 1-') functions. All patients gave written informed consent.

[1] = 1.2 mg m-2, day 1, mean of dose level
[2] = 1.2 mg m-2, day 4, individual patients 7-12 in order
[3] = 1.2 mg m-2, day 4, mean of dose level
[4] = 1.5 mg m-2, day 1, individual patients 13, 15-18 in order
[5] = 1.5 mg m-2, day 1, individual patients 13-18 in order
[6] = 1.5 mg m-2, day 1, mean of dose level
[7] = 1.5 mg m-2, day 4, individual patients 13-18 in order
[8] = 1.5 mg m-2, day 4, mean of dose level
[9] = day 4, individual patients 1-3, 5-12, 16-18 in order

CC[C@@]1(O)C(=O)OCc2c1cc1n(c2=O)Cc2c-1nc1cc3c(cc1c2CN1CCN(C)CC1)OCCO3 [GI147211, [7 - (methylpiperazinomethylene) - 10,11 - ethylene-dioxy-20(S)] camptothecin dihydrochloride]
Cmax, mean [1]: 14.98 ng/mL | MRT, mean [1]: 3.47 h | Vdss, mean [1]: 203 l m-2 | t1/2, mean [1]: 3.45 h | tmax, mean [1]: 0.39 h | AUCinf [2]: 20.59 ng·h/mL and 37.83 ng·h/mL and 21.10 ng·h/mL and 14.84 ng·h/mL and 26.62 ng·h/mL and 16.96 ng·h/mL | Clearance, total plasma clearance [2]: 971 ml min-1 m-2 and 529 ml min-1 m-2 and 948 ml min-1 m-2 and 1348 ml min-1 m-2 and 802 ml min-1 m-2 and 1179 ml min-1 m-2 | Cmax [2]: 18.66 ng/mL and 20.03 ng/mL and 16.21 ng/mL and 9.62 ng/mL and 12.74 ng/mL and 11.63 ng/mL | MRT [2]: 3.06 h and 5.62 h and 3.47 h and 3.96 h and 7.06 h and 4.44 h | Vdss [2]: 163 l m-2 and 167 l m-2 and 182 l m-2 and 299 l m-2 and 307 l m-2 and 291 l m-2 | t1/2, elimination half-life [2]: 3.02 h and 4.07 h and 2.70 h and 2.20 h and 6.99 h and 4.99 h | tmax [2]: 0.25 h and 0.42 h (5×) | AUCinf, mean [3]: 22.99 ng·h/mL | Clearance, mean [3]: 963 ml min-1 m-2 | Cmax, mean [3]: 14.82 ng/mL | MRT, mean [3]: 4.60 h | Vdss, mean [3]: 235 l m-2 | t1/2, mean [3]: 3.99 h | tmax, mean [3]: 0.39 h | AUCinf [4]: 24.66 ng·h/mL and 24.39 ng·h/mL and 23.32 ng·h/mL and 22.64 ng·h/mL and 28.37 ng·h/mL | Clearance, total plasma clearance [4]: 1014 ml min-1 m-2 and 1025 ml min-1 m-2 and 1072 ml min-1 m-2 and 1104 ml min-1 m-2 and 881 ml min-1 m-2 | MRT [4]: 5.11 h and 3.57 h and 3.32 h and 3.65 h and 3.78 h | Vdss [4]: 296 l m-2 and 204 l m-2 and 197 l m-2 and 225 l m-2 and 186 l m-2 | t1/2, elimination half-life [4]: 4.98 h and 4.62 h and 4.37 h and 4.61 h and 4.42 h | Cmax [5]: 15.08 ng/mL and 27.48 ng/mL and 19.21 ng/mL and 19.53 ng/mL and 18.91 ng/mL and 15.90 ng/mL | tmax [5]: 0.25 h (3×) and 0.42 h (2×) and 0.75 h | AUCinf, mean [6]: 24.68 ng·h/mL | Clearance, mean [6]: 1019 ml min-1 m-2 | Cmax, mean [6]: 19.35 ng/mL | MRT, mean [6]: 3.89 h | Vdss, mean [6]: 222 l m-2 | t1/2, mean [6]: 4.60 h | tmax, mean [6]: 0.39 h | AUCinf [7]: 26.92 ng·h/mL and 29.51 ng·h/mL and 30.85 ng·h/mL and 34.51 ng·h/mL and 24.85 ng·h/mL and 52.70 ng·h/mL | Clearance, total plasma clearance [7]: 929 ml min-1 m-2 and 847 ml min-1 m-2 and 810 ml min-1 m-2 and 724 ml min-1 m-2 and 1006 ml min-1 m-2 and 474 ml min-1 m-2 | Cmax [7]: 20.02 ng/mL and 23.81 ng/mL and 25.41 ng/mL and 32.19 ng/mL and 21.18 ng/mL and 28.25 ng/mL | MRT [7]: 5.06 h and 2.56 h and 3.04 h and 4.47 h and 5.75 h and 4.74 h | Vdss [7]: 261 l m-2 and 117 l m-2 and 144 l m-2 and 178 l m-2 and 319 l m-2 and 126 l m-2 | t1/2, elimination half-life [7]: 4.95 h and 3.44 h and 4.35 h and 5.62 h and 5.82 h and 4.43 h | tmax [7]: 0.42 h (4×) and 0.25 h (2×) | AUCinf, mean [8]: 33.22 ng·h/mL | Clearance, mean [8]: 798 ml min-1 m-2 | Cmax, mean [8]: 25.14 ng/mL | MRT, mean [8]: 4.27 h | Vdss, mean [8]: 191 l m-2 | t1/2, mean [8]: 4.77 h | tmax, mean [8]: 0.36 h | relation of AUC to the dose (0.3-1.5 mg m-2, Figure 3 day 4 of course 1): linearly related to the dose | terminal half-life (abstract, all patients): 3.7 ± 1.2 h | total plasma clearance (abstract, all patients): 999 ± 184 mL/min | total plasma clearance, range (abstract, all patients): 640 to 1329 mL/min | volume of distribution (abstract, all patients): 190+/-461 m-2 | fraction of the drug excreted unchanged in the urine (fe) (day 1): 0.14 ± 0.07 | renal clearance (day 1): 140+74 ml min-1 m-2 | Clr, mean (day 1, Table VI): 251 ml min-1 and 140 ml min-1 m-2 | fe, mean (day 1, Table VI): 0.143 | Total plasma clearance (mean+s.d.) (day 1, all dose levels): 1014+ 177.0 ml min-1 m-2 | Vdss (mean+s.d.) (day 1, all dose levels): 193+ 45.9 l m-2 | mean residence time (MRT) (mean+s.d.) (day 1, all dose levels): 3.53+0.93 h | t1/2 (mean+s.d.) (day 1, all dose levels): 3.54+0.99 h | fe, fraction of the drug excreted unchanged (day 1, individual patients 1-12, 14, 15 in order): 0.114 and 0.081 and 0.212 and 0.115 and 0.156 and 0.149 and 0.106 and 0.101 and 0.088 and 0.085 and 0.116 and 0.347 and 0.191 and 0.135 | Clr, renal clearance (day 1, individual patients 1-12, 15 in order): 232 ml min-1 and 116 ml min-1 m-2 and 184 ml min-1 and 101 ml min-1 m-2 (2×) and 333 ml min-1 and 222 ml min-1 m-2 and 231 ml min-1 and 115 ml min-1 m-2 and 161 ml min-1 and 194 ml min-1 and 107 ml min-1 m-2 (2×) and 201 ml min-1 and 122 ml min-1 m-2 and 151 ml min-1 and 84 ml min-1 m-2 and 203 ml min-1 and 226 ml min-1 and 113 ml min-1 m-2 and 208 ml min-1 and 119 ml min-1 m-2 and 663 ml min-1 and 358 ml min-1 m-2 and 280 ml min-1 and 150 ml min-1 m-2 | Clr, mean (day 4, Table VI): 244 ml min-1 and 138 ml min-1 m-2 | Clr, renal clearance [9]: 175 ml min-1 and 88 ml min-1 m-2 and 128 ml min-1 and 70 ml min-1 m-2 and 430 ml min-1 and 287 ml min-1 m-2 and 192 ml min-1 and 120 ml min-1 m-2 and 225 ml min-1 and 123 ml min-1 m-2 and 196 ml min-1 and 119 ml min-1 m-2 and 212 ml min-1 and 118 ml min-1 m-2 and 241 ml min-1 and 127 ml min-1 m-2 and 344 ml min-1 and 172 ml min-1 m-2 and 314 ml min-1 and 179 ml min-1 m-2 and 459 ml min-1 and 248 ml min-1 m-2 and 218 ml min-1 and 128 ml min-1 m-2 and 182 ml min-1 and 91 ml min-1 m-2 and 101 ml min-1 and 59 ml min-1 m-2 | fe, fraction of the drug excreted unchanged [9]: 0.109 and 0.095 and 0.428 and 0.181 and 0.197 and 0.122 and 0.219 and 0.133 and 0.128 and 0.239 and 0.210 and 0.177 and 0.090 and 0.125
